Data set [1] relates to EGFPCAG78 RNA-expressing HEK293 cells. The data set is classed as cell-based. The method, then: HEK293 cells were cultured at 37° C. with 5% CO2 in DMEM supplemented with 10% FBS and 1% penicillin-streptomycin. Primary rat cortical neurons were isolated and cultured as previously described^37. Transient transfection of HEK293 cells was performed using Lipofectamine 2000 (Life Technologies). P3V8 were delivered to HEK293 cells using the DeliverX (DX) Peptide Transfection Kit (Affymetrix) 4 hr after DNA transfection. At least two batches of independently synthesized peptides were used in the experiments.
HEK 293 cells were seeded on a 24-well plate at a density of 0.5×10^5, and pEGFPCAG78 DNA construct was used to transfect the cells. For P3V8 treatment, different concentrations of P3V8 as indicated in the figure were transfected by DeliverX transfectant 4 hr after DNA transfection. […] Seventy-two hours after treatment, LDH enzyme activity in the cell culture medium was measured as described before. Experimental groups were normalized to the untransfected control. After normalization, data were analyzed using the dose response-inhibition curve (nonlinear regression-variable slope) to determine the IC50 value (Prism6 software, GraphPad Software, Inc.). Each experiment was repeated at least 3 times.

Data set [2] deals with DsRedCAG100 flies. As to the kind of experiment: Pseudopupil assay in DsRedCAG100 Drosophila (expanded CAG RNA neurodegeneration). The data set is classed as in vivo. Conditions: for suppression of neurotoxicity / retinal degeneration: DsRedCAG100 flies, in words. The source says: Here the DsRedCAG0/100Drosophila model was utilized to investigate the suppressive effects of the P3 analogs on RNA toxicity. In this model, the CAG repeat is located in the 3′ untranslated region of the DsRed reporter gene-=. The transcribed expanded CAG RNA is not translated into polyQ protein, and thus the toxicity is solely attributed to the expression of DsRedCAG100 RNA. In brief, the expression of expanded CAG RNA causes severe retinal degeneration in the animal that can be quantified by a pseudopupil assay^7. Inhibitors that can suppress neurotoxicity will result in the recovery of the number of rhabdomeres within the ommatidium. To test the derivatives, third instar larvae were fed different amounts of peptide dissolved in sucrose solution for 2 hr and then allowed to culture in standard fly food until the flies were 12 days old, at which time they were sacrificed for the pseudopupil assay.
(§1) Flies were raised at 21.5° C. on cornmeal medium supplemented with dry yeast. Fly lines bearing UAS-DsRedCAG0 and UAS-DsRedCAG100 were kind gifts of Professor Nancy Bonini (University of Pennsylvania, USA). The gmr-GAL4 fly line was obtained from Bloomington Drosophila Stock Center. For pseudopupil assay, third instar larvae were fed with various amount of respective peptides dissolved in 2% sucrose solution for 2 hr and then continued to culture in standard fly food at 21.5° C.^38. Pseudopupil assay was performed on 12 day-old adult flies as mentioned previously^39. Images were captured by SPOT Insight CCD camera controlled by the SPOT Advanced software (Diagnostic instruments Inc.). Image processing was performed using the Adobe Photoshop CS software (Adobe). Each experiment was repeated at least 3 times (n=10 fly heads), and consistent results were obtained. For viability test of wild-type flies from egg to adult stage, eggs born within 5 hr were collected and cultured in fly food containing 10 or 50 μM of respective peptides at 21.5° C. Viability from egg-to-adult was calculated as the number of adult flies collected divided by the number of eggs examined. Each experiment was repeated for three times (at least 130 eggs were examined in each group). Two batches of independently synthesized peptides were used in the experiments.

In data set [3] the test system is HEK293 cells. As to the kind of experiment: Cellular uptake studies in HEK293 cells (LC/MS). The class given is in vitro ADME. The following applies: 3 hr; for cellular uptake: 100 nM peptide. How it is done:
HEK293 cells were seeded on a 6-well plate at a density of 6×10^5 and cultured overnight at 37° C. with 5% CO2 in DMEM supplemented with 10% FBS and 1% penicillin-streptomycin. Cells were then treated with 100, 500 or 1000 nM of respective peptide at 37° C. for 3 hr. After treatment, the cells were washed with ice-cold PBS and then lysed by 2% SDS solution. Aliquot (100 μl) of the cell lysate was added with 200 μl acetonitrile and centrifuged at 13000 rcf for 10 min to precipitate the proteins. The collected supernatant was subjected to LC/MS analysis. The protein concentration of the cell lysate was measured using a bicinchoninic acid protein assay kit following Sigma's protocol.

The test system of data set [4] is DsRedCAG0 Drosophila. The data set is described as follows: Pseudopupil assay in DsRedCAG0 control Drosophila (toxicity of peptide). The data set is classed as in vivo. The following applies: up to 50 μM. The method, then: Because of the aim to develop P3V8 into a potent inhibitor that targets RNA toxicity in degenerating cells within the nervous system, it was assessed whether P3V8 had deleterious effects on neuronal cells by determining lactate dehydrogenase release in the culturing medium of rat cortical neurons.
as §1, with “For viability test of wild-type flies from egg to adult stage, eggs born within 5 hr were collected and cultured in fly food containing 10 or 50 μM of respective peptides at 21.5° C.” left out, “Each experiment was repeated for three times (at least 130 eggs were examined in each group). Two batches of independently synthesized peptides were used in the experiments.” left out

Residues, ends and D or L forms follow the SMILES beside them. *: point of attachment. Palmitoyl = CCCCCCCCCCCCCCCC(=O)*

One may read the IC50 as the concentration at which inhibition is half-maximal. As to `CCCCCCCCCCCCCCCC(=O)N[C@@H](CC(=O)O)C(=O)NCC(=O)N[C@@H](CCCCN)C(=O)N[C@@H](CO)C(=O)N[C@@H](CCCCN)C(=O)NCC(=O)N[C@H](C(=O)N[C@@H](C)C(=O)N[C@@H](Cc1ccc(O)cc1)C(=O)N[C@H](C(=O)N[C@@H](CCC(=O)O)C(=O)N[C@@H](Cc1ccccc1)C(=O)N[C@@H](CCCCN)C(N)=O)[C@@H](C)CC)[C@@H](C)CC` [L1P3V8] (Palmitoyl-DGKSKGIAYIEFK-NH2), in data set [1] (72 hr, read-out: IC50 (inhibition of cell death, LDH)), the IC50 was about 100 nM. Besides, the “suppression of neurotoxicity / retinal degeneration” value in data set [2] is recorded as “suppressed retinal degeneration”. Further, the cellular uptake entry in data set [3] is “low cellular concentration”. For the same molecule, in data set [3] (500 nM and 1 μM treatment), the “cellular concentration compared to P3V8” value was “higher cellular concentration”. For the same molecule, the “effect on DsRedCAG0 Drosophila” value in data set [4] is recorded as “no cytotoxic effects”.
Ac-DGKSKGIAYIEFK-NH2 [P3V8]: the “effect on expanded CAG RNA-induced cytotoxicity” value in data set [1] was “effectively alleviate the cytotoxicity”. In addition, the “effect on expanded CAG RNA-induced cell death” value in data set [1] (peptide alone, without DeliverX) was “did not exert any cellular effect”. The pseudopupil score in data set [2] (1 μM treatment, 12 day-old flies) was found to be 4.32±0.25. For the same molecule, the “suppression of neurotoxicity / retinal degeneration” value in data set [2] is on record as “significantly suppressed neurotoxicity”. Moreover, in data set [3], the cellular uptake result is recorded as “no uptake”. In addition, the “effect on DsRedCAG0 Drosophila” value in data set [4] is “did not show any observable effect”.

For the origin of these results see patent US10570177B2, “P3 peptidylic inhibitors for treating CAG-repeat RNA toxicity in polyglutamine diseases” (The Chinese University of Hong Kong, priority 2017, dated 2020).
